Assay results as given in BindingDB's records for doi:10.1016/j.bmcl.2016.06.045 (China Pharmaceutical University, 2016).

Test: Inhibition of PARP1 in human A549 cells assessed as potentiation of TMZ-mediated cytotoxicity by measuring TMZ IC50 for growth inhibition at 0.5 uM by SRB assay (Rvb TMZ IC50 = 295 uM)

Work on `NC(=O)c1c(F)ccc2[nH]c(-c3ccc(N4CCNCC4)cc3)nc12` yielded an IC50 of 188 µM.
Work on `NC(=O)c1c(F)ccc2[nH]c(C3CCNCC3)nc12` yielded an IC50 of 354 µM.
For `CN1CCC[C@@]1(C)c1nc2c(C(N)=O)c(F)ccc2[nH]1`, the IC50 was 310 µM.
Work on `NC(=O)c1c(F)ccc2[nH]c(-c3ccc(N4CCOCC4)cc3)nc12` yielded an IC50 of 130 µM.
With `CCCN1CCC(c2nc3c(C(N)=O)c(F)ccc3[nH]2)CC1` the IC50 was 152 µM.
For `C[C@]1(c2nc3c(C(N)=O)c(F)ccc3[nH]2)CCCN1`, the IC50 was 338 µM.
